Results taken from US9499550B2 (BRISTOL-MYERS SQUIBB COMPANY, priority 2012, dated 2016).
pEC50: −log10 of the molar value.

What was measured:
[1] = system: HCV genotype 1a (H77 strain) replicon in HUH-7 cells; assay: HCV replicon luciferase reporter assay, genotype 1a; assay type: cell-based; conditions: Hepatitis C virus, Huh-7, 72 h, HCV genotype 1a replicon luciferase assay, 3 days incubation, range class, read-out: LE_1a (EC50, range)
Procedure, shortened: (§1)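 Replicon inhibition for both genotypes was measured as Renilla luciferase signal (EnduRen, 7.5 μM final, 2 h) after 3-day, 37° C exposure of replicon-bearing HUH-7 cells in 4% FCS DMEM, 0.5% DMSO. The 1b construct carries S1179I; the 1a H77 construct carries P1496L and S2204I. Twenty-point, 3-fold dilutions were fitted four-parametrically for EC50, and CC50 was taken from multiplexed Cell Titer-Blue.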

[2] = system: HCV genotype 1b (Con1) replicon in HUH-7 cells; assay: HCV replicon luciferase reporter assay, genotype 1b; assay type: cell-based; conditions: Hepatitis C virus, Huh-7, 72 h, HCV genotype 1b replicon luciferase assay, 3 days incubation, range class, read-out: LE_1b (EC50, range)
Procedure, shortened: as §1

| Compound | pEC50 [1] | pEC50 [2] |
| --- | --- | --- |
| CCC(C)(C)OC(=O)N[C@@H]1C(=O)N2C[C@H](Oc3ncc(OC)c4ccccc34)C[C@H]2C(=O)N[C@]2(C(=O)NS(=O)(=O)C3(CF)CC3)C[C@H]2/C=C\CC[C@@H](C)C[C@H]1C [Compound 1044, tert-pentyl ((2R,6S,7R,9R,13aS,14aR,16aS,Z)-14a-(((1-(fluoromethyl)cyclopropyl)sulfonyl)carbamoyl)-2-((4-methoxyisoquinolin-1-yl)oxy)-7,9-dimethyl-5,16-dioxo-1,2,3,5,6,7,8,9,10,11,13a,14,14a,15,16,16a-hexadecahydrocyclopropa[e]pyrrolo[1,2-a][1,4]diazacyclopentadecin-6-yl)carbamate] | > 8.26 | > 8.26 |
| COc1cnc(O[C@@H]2C[C@H]3C(=O)N[C@]4(C(=O)NS(=O)(=O)C5(CF)CC5)C[C@H]4/C=C\CC[C@@H](C)C[C@@H](C)[C@H](NC(=O)OC4(C)COC4)C(=O)N3C2)c2ccccc12 [Compound 1045, 3-methyloxetan-3-yl ((2R,6S,7R,9R,13aS,14aR,16aS,Z)-14a-(((1-(fluoromethyl)cyclopropyl)sulfonyl)carbamoyl)-2-((4-methoxyisoquinolin-1-yl)oxy)-7,9-dimethyl-5,16-dioxo-1,2,3,5,6,7,8,9,10,11,13a,14,14a,15,16,16a-hexadecahydrocyclopropa[e]pyrrolo[1,2-a][1,4]diazacyclopentadecin-6-yl)carbamate] | > 8.26 | > 8.26 |
| COc1cnc(O[C@@H]2C[C@H]3C(=O)N[C@]4(C(=O)NS(=O)(=O)C5(CF)CC5)C[C@H]4/C=C\CC[C@@H](C)C[C@@H](C)[C@H](NC(=O)OC4(C(F)(F)F)COC4)C(=O)N3C2)c2ccccc12 [Compound 1046, 3-(trifluoromethyl)oxetan-3-yl ((2R,6S,7R,9R,13aS,14aR,16aS,Z)-14a-(((1-(fluoromethyl)cyclopropyl)sulfonyl)carbamoyl)-2-((4-methoxyisoquinolin-1-yl)oxy)-7,9-dimethyl-5,16-dioxo-1,2,3,5,6,7,8,9,10,11,13a,14,14a,15,16,16a-hexadecahydrocyclopropa[e]pyrrolo[1,2-a][1,4]diazacyclopentadecin-6-yl)carbamate] | > 8.26 | > 8.26 |
| COc1cnc(O[C@@H]2C[C@H]3C(=O)N[C@]4(C(=O)NS(=O)(=O)C5(CF)CC5)C[C@H]4/C=C\CC[C@H](C)C[C@@H](C)[C@H](NC(=O)OC4(C(F)(F)F)CCOCC4)C(=O)N3C2)c2ccccc12 [Compound 1047, 4-(trifluoromethyl)tetrahydro-2H-pyran-4-yl((2R,6S,7R,9S,13aS,14aR,16aS,Z)-14a-(((1-(fluoromethyl)cyclopropyl)sulfonyl)carbamoyl)-2-((4-methoxyisoquinolin-1-yl)oxy)-7,9-dimethyl-5,16-dioxo-1,2,3,5,6,7,8,9,10,11,13a,14,14a,15,16,16a-hexadecahydrocyclopropa[e]pyrrolo[1,2-a][1,4]diazacyclopentadecin-6-yl)carbamate] | 6.99 to 8.32 | 6.99 to 8.32 |
| COc1cnc(O[C@@H]2C[C@H]3C(=O)N[C@]4(C(=O)NS(=O)(=O)C5(CF)CC5)C[C@H]4/C=C\CC[C@@H](C)C[C@@H](C)[C@H](NC(=O)OC4(C(F)(F)F)CCOCC4)C(=O)N3C2)c2ccccc12 [Compound 1048, 4-(trifluoromethyl)tetrahydro-2H-pyran-4-yl((2R,6S,7R,9R,13aS,14aR,16aS,Z)-14a-(((1-(fluoromethyl)cyclopropyl)sulfonyl)carbamoyl)-2-((4-methoxyisoquinolin-1-yl)oxy)-7,9-dimethyl-5,16-dioxo-1,2,3,5,6,7,8,9,10,11,13a,14,14a,15,16,16a-hexadecahydrocyclopropa[e]pyrrolo[1,2-a][1,4]diazacyclopentadecin-6-yl)carbamate] | > 8.26 | > 8.26 |
| COCC(C)(C)OC(=O)N[C@@H]1C(=O)N2C[C@H](Oc3ncc(OC)c4ccccc34)C[C@H]2C(=O)N[C@]2(C(=O)NS(=O)(=O)C3(CF)CC3)C[C@H]2/C=C\CC[C@H](C)C[C@H]1C [Compound 1049, 1-methoxy-2-methylpropan-2-yl((2R,6S,7R,9S,13aS,14aR,16aS,Z)-14a-(((1-(fluoromethyl)cyclopropyl)sulfonyl)carbamoyl)-2-((4-methoxyisoquinolin-1-yl)oxy)-7,9-dimethyl-5,16-dioxo-1,2,3,5,6,7,8,9,10,11,13a,14,14a,15,16,16a-hexadecahydrocyclopropa[e]pyrrolo[1,2-a][1,4]diazacyclopentadecin-6-yl)carbamate] | 6.99 to 8.32 | 6.99 to 8.32 |
| COCC(C)(C)OC(=O)N[C@@H]1C(=O)N2C[C@H](Oc3ncc(OC)c4ccccc34)C[C@H]2C(=O)N[C@]2(C(=O)NS(=O)(=O)C3(CF)CC3)C[C@H]2/C=C\CC[C@@H](C)C[C@H]1C [Compound 1050, 1-methoxy-2-methylpropan-2-yl((2R,6S,7R,9R,13aS,14aR,16aS,Z)-14a-(((1-(fluoromethyl)cyclopropyl)sulfonyl)carbamoyl)-2-((4-methoxyisoquinolin-1-yl)oxy)-7,9-dimethyl-5,16-dioxo-1,2,3,5,6,7,8,9,10,11,13a,14,14a,15,16,16a-hexadecahydrocyclopropa[e]pyrrolo[1,2-a][1,4]diazacyclopentadecin-6-yl)carbamate] | > 8.26 | > 8.26 |
| COc1cnc(O[C@@H]2C[C@H]3C(=O)N[C@]4(C(=O)NS(=O)(=O)C5(CF)CC5)C[C@H]4/C=C\CC[C@H](C)C[C@@H](C)[C@H](NC(=O)OC4(C)CCOCC4)C(=O)N3C2)c2ccccc12 [Compound 1051, 4-methyltetrahydro-2H-pyran-4-yl((2R,6S,7R,9S,13aS,14aR,16aS,Z)-14a-(((1-(fluoromethyl)cyclopropyl)sulfonyl)carbamoyl)-2-((4-methoxyisoquinolin-1-yl)oxy)-7,9-dimethyl-5,16-dioxo-1,2,3,5,6,7,8,9,10,11,13a,14,14a,15,16,16a-hexadecahydrocyclopropa[e]pyrrolo[1,2-a][1,4]diazacyclopentadecin-6-yl)carbamate] | 6.99 to 8.32 | 6.99 to 8.32 |
| COc1cnc(O[C@@H]2C[C@H]3C(=O)N[C@]4(C(=O)NS(=O)(=O)C5(CF)CC5)C[C@H]4/C=C\CC[C@@H](C)C[C@@H](C)[C@H](NC(=O)OC4(C)CCOCC4)C(=O)N3C2)c2ccccc12 [Compound 1052, 4-methyltetrahydro-2H-pyran-4-yl((2R,6S,7R,9R,13aS,14aR,16aS,Z)-14a-(((1-(fluoromethyl)cyclopropyl)sulfonyl)carbamoyl)-2-((4-methoxyisoquinolin-1-yl)oxy)-7,9-dimethyl-5,16-dioxo-1,2,3,5,6,7,8,9,10,11,13a,14,14a,15,16,16a-hexadecahydrocyclopropa[e]pyrrolo[1,2-a][1,4]diazacyclopentadecin-6-yl)carbamate] | 6.99 to 8.32 | > 8.26 |
| COc1cnc(O[C@@H]2C[C@H]3C(=O)N[C@]4(C(=O)NS(=O)(=O)C5(CF)CC5)C[C@H]4/C=C\CC[C@H](C)C[C@@H](C)[C@H](NC(=O)OC4(C(C)C)COC4)C(=O)N3C2)c2ccccc12 [Compound 1053, 3-isopropyloxetan-3-yl ((2R,6S,7R,9S,13aS,14aR,16aS,Z)-14a-(((1-(fluoromethyl)cyclopropyl)sulfonyl)carbamoyl)-2-((4-methoxyisoquinolin-1-yl)oxy)-7,9-dimethyl-5,16-dioxo-1,2,3,5,6,7,8,9,10,11,13a,14,14a,15,16,16a-hexadecahydrocyclopropa[e]pyrrolo[1,2-a][1,4]diazacyclopentadecin-6-yl)carbamate] | 6.99 to 8.32 | 6.99 to 8.32 |
| COc1cnc(O[C@@H]2C[C@H]3C(=O)N[C@]4(C(=O)NS(=O)(=O)C5(CF)CC5)C[C@H]4/C=C\CC[C@@H](C)C[C@@H](C)[C@H](NC(=O)OC4(C(C)C)COC4)C(=O)N3C2)c2ccccc12 [Compound 1054, 3-isopropyloxetan-3-yl ((2R,6S,7R,9R,13aS,14aR,16aS,Z)-14a-(((1-(fluoromethyl)cyclopropyl)sulfonyl)carbamoyl)-2-((4-methoxyisoquinolin-1-yl)oxy)-7,9-dimethyl-5,16-dioxo-1,2,3,5,6,7,8,9,10,11,13a,14,14a,15,16,16a-hexadecahydrocyclopropa[e]pyrrolo[1,2-a][1,4]diazacyclopentadecin-6-yl)carbamate] | > 8.26 | > 8.26 |
| COc1cnc(O[C@@H]2C[C@H]3C(=O)N[C@]4(C(=O)NS(=O)(=O)C5(CF)CC5)C[C@H]4/C=C\CC[C@H](C)C[C@@H](C)[C@H](NC(=O)OC4(C)CCCOC4)C(=O)N3C2)c2ccccc12 (stereo partly drawn) [Compound 1055, 3-methyltetrahydro-2H-pyran-3-yl((2R,6S,7R,9S,13aS,14aR,16aS,Z)-14a-(((1-(fluoromethyl)cyclopropyl)sulfonyl)carbamoyl)-2-((4-methoxyisoquinolin-1-yl)oxy)-7,9-dimethyl-5,16-dioxo-1,2,3,5,6,7,8,9,10,11,13a,14,14a,15,16,16a-hexadecahydrocyclopropa[e]pyrrolo[1,2-a][1,4]diazacyclopentadecin-6-yl)carbamate] | > 8.26 | > 8.26 |
| COc1cnc(O[C@@H]2C[C@H]3C(=O)N[C@]4(C(=O)NS(=O)(=O)C5(CF)CC5)C[C@H]4/C=C\CC[C@@H](C)C[C@@H](C)[C@H](NC(=O)OC4(C)CCCOC4)C(=O)N3C2)c2ccccc12 (stereo partly drawn) [Compound 1056, 3-methyltetrahydro-2H-pyran-3-yl((2R,6S,7R,9R,13aS,14aR,16aS,Z)-14a-(((1-(fluoromethyl)cyclopropyl)sulfonyl)carbamoyl)-2-((4-methoxyisoquinolin-1-yl)oxy)-7,9-dimethyl-5,16-dioxo-1,2,3,5,6,7,8,9,10,11,13a,14,14a,15,16,16a-hexadecahydrocyclopropa[e]pyrrolo[1,2-a][1,4]diazacyclopentadecin-6-yl)carbamate] | > 8.26 | > 8.26 |
